Among the test systems are CAKI-1 renal; SF-295 CNS; OVCAR-8 ovarian; IGROV1 ovarian; SK-OV-3 ovarian; RXF 393 renal; MALME-3M melanoma; HS 578T breast; UACC-257 melanoma; HCC-2998 colon.
Common to all, as to test: DTP human tumour cell line panel, 48 h

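96-well plates; 48 h exposure; 5 concentrations. Endpoints by linear interpolation between flanking doses. Not reached: highest tested concentration assigned. Abbreviation: GI50, concentration required for 50% inhibition of growth. The concentration for full growth arrest is given as TGI.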

As for `NS(=O)(=O)c1ccc(C(=O)O)cc1`, the TGI in the experiment with CAKI-1 renal, with SF-295 CNS, in the experiment with OVCAR-8 ovarian, in the experiment with IGROV1 ovarian, in the experiment on SK-OV-3 ovarian and in the experiment on RXF 393 renal was over 100 µM throughout. Moreover, the total growth inhibition concentration (TGI) with MALME-3M melanoma and with HS 578T breast was over 100 µM throughout.

For the compound `ClCCN(CC#CCCCC#CCN(CCCl)CCCl)CCCl`, the TGI – broadly, the concentration at which net growth stops – came out at 32.7 µM in the experiment with CAKI-1 renal; 28.1 µM in the experiment with SF-295 CNS; 29.2 µM in the experiment with UACC-257 melanoma; 23.9 µM with OVCAR-8 ovarian; 35.1 µM in the experiment on IGROV1 ovarian; 27.8 µM in the experiment on SK-OV-3 ovarian. Besides, the TGI in the experiment on RXF 393 renal is 33.5 µM; in the experiment on HCC-2998 colon, 32.9 µM; in the experiment with MALME-3M melanoma it was 32.5 µM.

As to `CC1(C)CCc2cc3c(cc2O1)OC(C)(C)CC3=O`, the TGI in the experiment with CAKI-1 renal, in the experiment on SF-295 CNS, in the experiment with OVCAR-8 ovarian, in the experiment on IGROV1 ovarian and in the experiment on SK-OV-3 ovarian was over 100 µM throughout.

Take `Cc1c2ccccc2c(CSC(=N)N)c2ccccc12`: the concentration for total growth inhibition (TGI) in the experiment on SF-295 CNS stood at 2.29 µM; in the experiment with UACC-257 melanoma it was 0.406 µM; in the experiment with OVCAR-8 ovarian it was 6.43 µM; in the experiment on IGROV1 ovarian, 2.36 µM; with SK-OV-3 ovarian it was 2.67 µM; with RXF 393 renal, 0.161 µM. The TGI was 0.356 µM with MALME-3M melanoma and 0.475 µM in the experiment with HS 578T breast.

For the compound `N=C(N)SC(c1ccccc1)c1ccccc1`, the TGI was 29.4 µM in the experiment on CAKI-1 renal; 34.7 µM in the experiment with SF-295 CNS; 28.4 µM in the experiment on UACC-257 melanoma; 36.4 µM in the experiment with OVCAR-8 ovarian; 42.8 µM in the experiment with IGROV1 ovarian; over 100 µM with SK-OV-3 ovarian. Moreover, the TGI was 19.4 µM with RXF 393 renal, 20.1 µM in the experiment with HCC-2998 colon, 34.6 µM in the experiment on MALME-3M melanoma and over 100 µM in the experiment on HS 578T breast.

For the compound `CC(C)(c1ccccc1)c1ccc(Oc2ccc3c(c2)-c2nc-3nc3[nH]c(nc4nc(nc5[nH]c(n2)c2ccc(Oc6ccc(C(C)(C)c7ccccc7)cc6)cc52)-c2cc(Oc5ccc(C(C)(C)c6ccccc6)cc5)ccc2-4)c2ccc(Oc4ccc(C(C)(C)c5ccccc5)cc4)cc32)cc1`, the TGI in the experiment with UACC-257 melanoma was over 100 µM; in the experiment on OVCAR-8 ovarian, over 100 µM; with IGROV1 ovarian, over 100 µM; in the experiment on SK-OV-3 ovarian it was over 100 µM; in the experiment on RXF 393 renal, 97 µM; in the experiment with HCC-2998 colon, over 100 µM. Moreover, the total growth inhibition concentration (TGI) in the experiment on MALME-3M melanoma is over 100 µM.

On to `Cn1c(=O)c2c(nc(N3CCOCC3)n2CCCNCC(O)c2ccc(O)c(O)c2)n(C)c1=O` (stereo not drawn), for which the TGI in the experiment with CAKI-1 renal, in the experiment on SF-295 CNS, in the experiment on UACC-257 melanoma, in the experiment with OVCAR-8 ovarian, in the experiment with IGROV1 ovarian and in the experiment on SK-OV-3 ovarian was over 100 µM each time. Also, the TGI with RXF 393 renal, in the experiment with MALME-3M melanoma and in the experiment with HS 578T breast was over 100 µM each time.

With `CC(C)C(C)C(O)C(O)C(C)C1CCC2C3COC(=O)C4CC(O)C(O)CC4(C)C3CCC12C` (stereo not drawn), the TGI in the experiment on CAKI-1 renal was 26.3 µM; with SF-295 CNS it was over 100 µM; with UACC-257 melanoma it was over 100 µM; in the experiment with OVCAR-8 ovarian, over 100 µM; in the experiment with IGROV1 ovarian, over 100 µM; in the experiment with SK-OV-3 ovarian, over 100 µM. Further, the TGI with RXF 393 renal is 67.4 µM; in the experiment with HCC-2998 colon it was over 100 µM; with MALME-3M melanoma it was over 100 µM; in the experiment on HS 578T breast, over 100 µM.

Turning to `CC1OC1P(=O)(O)O` (stereo not drawn), the TGI in the experiment on CAKI-1 renal, in the experiment with SF-295 CNS, in the experiment on UACC-257 melanoma, with OVCAR-8 ovarian, in the experiment on IGROV1 ovarian and in the experiment with SK-OV-3 ovarian was over 100 µM throughout. Also, the TGI in the experiment on RXF 393 renal, in the experiment on HCC-2998 colon and in the experiment on HS 578T breast was over 100 µM in each case.

For `Cn1ncc2c(=O)[nH]c(-c3ccccc3)nc21`, the TGI with CAKI-1 renal, with SF-295 CNS, in the experiment on UACC-257 melanoma, with OVCAR-8 ovarian, in the experiment with IGROV1 ovarian and in the experiment with SK-OV-3 ovarian was over 100 µM throughout. In addition, the TGI in the experiment with RXF 393 renal, in the experiment on HCC-2998 colon and in the experiment on MALME-3M melanoma was over 100 µM throughout.

As for `Cc1cc(N2CCCCC2)nc(NCc2cc(Nc3ccnc4cc(Cl)ccc34)ccc2F)n1`, the GI50 (commonly the concentration that inhibits growth by half) in the experiment on CAKI-1 renal is 1.74 µM; in the experiment with SF-295 CNS, 1.32 µM; with UACC-257 melanoma it was 1.32 µM; with OVCAR-8 ovarian, 2.05 µM; in the experiment on SK-OV-3 ovarian, 1.93 µM; in the experiment with RXF 393 renal, 1.79 µM. In addition, the GI50 with HS 578T breast is 2.03 µM. Also, the TGI was 3.32 µM with CAKI-1 renal; 2.7 µM in the experiment on SF-295 CNS; 2.85 µM in the experiment with UACC-257 melanoma; 4.68 µM in the experiment with OVCAR-8 ovarian; 3.48 µM in the experiment with SK-OV-3 ovarian; 3.47 µM with RXF 393 renal. In the experiment on HS 578T breast, this compound had a TGI of 4.62 µM.

Turning to `COc1ccc2c(c1)C(=O)c1c-2n(CCCCl)c(=O)c2cc([N+](=O)[O-])ccc12`, the GI50 in the experiment with CAKI-1 renal was 0.242 µM; in the experiment with SF-295 CNS it was under 0.01 µM; with UACC-257 melanoma, 1.59 µM; in the experiment on OVCAR-8 ovarian, 0.289 µM; in the experiment on IGROV1 ovarian it was 0.0585 µM; in the experiment with SK-OV-3 ovarian, 0.569 µM. In addition, the GI50 was 1.58 µM in the experiment on RXF 393 renal, 0.996 µM in the experiment on HCC-2998 colon, 0.0533 µM in the experiment with MALME-3M melanoma and over 68.9 µM with HS 578T breast. For the same compound, the concentration for total growth inhibition (TGI) in the experiment with CAKI-1 renal was 0.959 µM; with SF-295 CNS it was 0.21 µM; with UACC-257 melanoma, 98.5 µM; in the experiment on OVCAR-8 ovarian it was over 100 µM; in the experiment with IGROV1 ovarian, 6.57 µM; with SK-OV-3 ovarian, over 100 µM. In addition, the TGI was over 100 µM with RXF 393 renal, over 28.6 µM with HCC-2998 colon, 0.461 µM in the experiment with MALME-3M melanoma and over 100 µM in the experiment with HS 578T breast.
